Measurements as given in patent publication US20250018049A1, “COMPOUNDS FOR DEGRADING CYCLIN-DEPENDENT KINASE 2 VIA UBIQUITIN PROTEOSOME PATHWAY” (NIKANG THERAPEUTICS, INC., priority 2020, published 2025).

Legend:
Assay type in all cases: cell-based
CDK2 [1] = target: T1, CDK2 (Homo sapiens, UniProt P24941); assay: NanoBRET CDK2 engagement assay; set-up: expressed in transfected cells; details: OVCAR3 cells with stable CDK2-Luciferase vector, 24 hours treatment
In short: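 OVCAR3 cells stably expressing CDK2-luciferase, in Opti-MEM with 1% FBS, treated 24 h at 37° C with compound from 3 μM in ½-log steps to 0.3 nM; NanoBRET tracer present for final 2 h. Donor/acceptor emission read; engagement normalized to DMSO as 100% signal, IC50 by curve fit.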

CDK2 [2] = target: T1, CDK2; assay: Phospho-Rb HTRF measurement in OVCAR3 cells (inhibition of CDK2); set-up: High-Throughput Measurement of Cellular Endogenous CDK2; endogenous in cells; host or cells: OVCAR3; details: pRB(S807/811) assay, 24 h compound treatment
CDK2 [3] = target: T1, CDK2; assay: CDK2 HTRF assay (cellular endogenous CDK2 level); set-up: High-Throughput Measurement of Cellular Endogenous CDK2; endogenous in cells; host or cells: OVCAR3; details: OVCAR-3; OVCAR3 cells, 24 hours, 0.3 to 10,000 nM; read-out: max degradation of CDK2
Protocol: Effects of compounds on cellular CDK2 level can be monitored by a high-throughput HTRF assay or traditional Western Blot assay.
To determine half maximal degradation concentration (DC50) values of compounds, cellular CDK2 level was measured in 96-well format using HTRF total CDK2 cellular kit (Cat #64CDK2TPEG) from Cisbio.
On Day 1, OVCAR3 cells were seeded into 96-well tissue-culture treated plates at 20,000 cells/well in 200 μL and incubated overnight at 37° C. in CO2 atmosphere. On Day 2 cells were treated with compounds at concentration ranging from 0.3 to 10,000 nM using HP D300 digital dispenser. 24 hours after compound treatment, cell culture media was removed by flicking the plate and tapping the plate against clean paper towel. Immediately 30 μL 1× lysis buffer was supplemented from the kit and the plate was incubated at room temperature on shaker for 30 min. After homogenization by pipetting up and down, 8 μL cell lysate from 96-well cell culture plate was transferred to 384-well small volume white detection plate. 2 μL premixed detection solution was added and the plate was covered with sealer. To prepare the detection solution, d2 conjugated-CDK2 antibody and Eu-cryptate conjugated CDK2 antibody were diluted into detection buffer following manufacturer's instruction. Detection plates were incubated overnight at room temperature and read on ClarioStar (BMG Labtech) in TR-FRET mode (665 nM and 620 nM). The TR-FRET ratio (665 nM/620 nM) was plotted against the compound concentration and normalized to DMSO controls. Half maximal degradation concentration (DC50) values were calculated with a four-parameter logistic fit using GraphPad Prism (version 8; La Jolla, CA). FIG. 1 provides a dose-response curve of Compound 1 in Compound Table I in cellular CDK2 HTRF assay. IC50 in FIG. 1 is the same as DC50. Compounds 1, 13, 16, 22, 23, 28, 34, 35, 36, 37, 38, 39, 42, 48, 50, 51, 53, 54, 55, 56, 57, 58, 59, 60, 61, 62, 63, 65, 66, 68, 69, 70 were tested and max degradation of CDK2 observed was from about 35% to about 90%.

| SMILES | IC50 (CDK2 [1]) | IC50 (CDK2 [2]) | Dmax (CDK2 [3]) |
| --- | --- | --- | --- |
| O=C1CCC(N2Cc3cc(N4CC5CCC4CN5Cc4cccc(S(=O)(=O)N5CCC(Nc6ncc7ccc(=O)n(C8CCCC8)c7n6)CC5)c4)ccc3C2=O)C(=O)N1 (stereo not drawn) [Compound 51, 3-(5-(5-(3-((4-((8-cyclopentyl-7-oxo-7,8-dihydropyrido[2,3-d]pyrimidin-2-yl)amino)-piperidin-1-yl)sulfonyl)benzyl)-2,5-diazabicyclo[2.2.2]octan-2-yl)-1-oxoisoindolin-2-yl)piperidine-2,6-dione] | 198 nM | 154 nM | 35 to 90% |
| CN(CCCN1CCC(c2cccc3c2n(C)c(=O)n3C2CCC(=O)NC2=O)CC1)S(=O)(=O)N1CCC(Nc2ncc3ccc(=O)n(C4CCCC4)c3n2)CC1 (stereo not drawn) [Compound 23, 4-((8-cyclopentyl-7-oxo-7,8-dihydropyrido[2,3-d]pyrimidin-2-yl)amino)-N-(3-(4-(1-(2,6-dioxo-piperidin-3-yl)-3-methyl-2-oxo-2,3-dihydro-1H-benzo[d]imidazol-4-yl)piperidin-1-yl)propyl)-N-methylpiperidine-1-sulfonamide] | < 1 nM | 13.6 nM | 35 to 90% |
| O=C1CCC(N2Cc3cc(N4CCC(CN5CCN(c6cccc(S(=O)(=O)N7CCC(Nc8ncc9ccc(=O)n(C%10CCCC%10)c9n8)CC7)c6)CC5)CC4)ccc3C2=O)C(=O)N1 (stereo not drawn) [Compound 38, 3-(5-(4-((4-(3-((4-((8-cyclopentyl-7-oxo-7,8-dihydropyrido[2,3-d]pyrimidin-2-yl)amino)-piperidin-1-yl)sulfonyl)phenyl)piperazin-1-yl)-methyl)piperidin-1-yl)-1-oxoisoindolin-2-yl)-piperidine-2,6-dione] | 42.3 nM | 11.1 nM | 35 to 90% |
| O=C1CCC(N2Cc3cc(N4CCN(Cc5cccc(S(=O)(=O)N6CCC(Nc7ncc8ccc(=O)n(C9CCCC9)c8n7)CC6)c5)CC4)c(F)cc3C2=O)C(=O)N1 (stereo not drawn) [Compound 42, 3-(5-(4-(3-((4-((8-cyclopentyl-7-oxo-7,8-dihydropyrido[2,3-d]pyrimidin-2-yl)amino)-piperidin-1-yl)sulfonyl)benzyl)piperazin-1-yl)-6-fluoro-1-oxoisoindolin-2-yl)piperidine-2,6-dione] | 297 nM | 24.7 nM | 35 to 90% |
| O=C1CCC(N2Cc3cc(N4CCC5(CCN(Cc6cccc(S(=O)(=O)N7CCC(Nc8ncc9ccc(=O)n(C%10CCCC%10)c9n8)CC7)c6)CC5)CC4)ccc3C2=O)C(=O)N1 (stereo not drawn) [Compound 59, 3-(5-(9-(3-((4-((8-cyclopentyl-7-oxo-7,8-dihydro-pyrido[2,3-d]pyrimidin-2-yl)amino)piperidin-1-yl)sulfonyl)benzyl)-3,9-diazaspiro[5.5]undecan-3-yl)-1-oxoisoindolin-2-yl)piperidine-2,6-dione] | 180 nM | 48.2 nM | 35 to 90% |
| CN(CCN(C)S(=O)(=O)N1CCC(Nc2ncc3ccc(=O)n(C4CCCC4)c3n2)CC1)Cc1ccc(N(C)c2cccc3c2C(=O)N(C2CCC(=O)NC2=O)C3=O)cc1 (stereo not drawn) [Compound 22, 4-((8-cyclopentyl-7-oxo-7,8-dihydropyrido[2,3-d]-pyrimidin-2-yl)amino)-N-(2-((4-((2-(2,6-dioxopiperidin-3-yl)-1,3-dioxoisoindolin-4-yl)(methyl)amino)benzyl)(methyl)amino)ethyl)-N-methylpiperidine-1-sulfonamide] | 903 nM | 798 nM | 35 to 90% |
| O=C1CCC(N2C(=O)c3cc(F)c(N4CCN(Cc5cccc(S(=O)(=O)N6CCC(Nc7ncc8ccc(=O)n(C9CCCC9)c8n7)CC6)c5)CC4)cc3C2=O)C(=O)N1 (stereo not drawn) [Compound 48, 5-(4-(3-((4-((8-cyclopentyl-7-oxo-7,8-dihydro-pyrido[2,3-d]pyrimidin-2-yl)amino)piperidin-1-yl)sulfonyl)-benzyl)piperazin-1-yl)-2-(2,6-dioxo-piperidin-3-yl)-6-fluoroisoindoline-1,3-dione] | 722 nM | 131 nM | 35 to 90% |
| O=C1CCC(N2Cc3cc(N4CCN(Cc5cccc(S(=O)(=O)N6CCC(Nc7ncc8ccc(=O)n(C9CCCC9)c8n7)CC6)c5)CC4)ccc3C2=O)C(=O)N1 (stereo not drawn) [Compound 50, 3-(5-(4-(3-((4-((8-cyclopentyl-7-oxo-7,8-dihydropyrido[2,3-d]pyrimidin-2-yl)-amino)-piperidin-1-yl)sulfonyl)benzyl)-piperazin-1-yl)-1-oxoisoindolin-2-yl)piperidine-2,6-dione] | 289 nM | 49 nM | 35 to 90% |
| O=C1CCC(N2Cc3cc(N4CC5(CN(Cc6cccc(S(=O)(=O)N7CCC(Nc8ncc9ccc(=O)n(C%10CCCC%10)c9n8)CC7)c6)C5)C4)ccc3C2=O)C(=O)N1 (stereo not drawn) [Compound 60, 3-(5-(6-(3-((4-((8-cyclopentyl-7-oxo-7,8-dihydro-pyrido[2,3-d]pyrimidin-2-yl)amino)piperidin-1-yl)sulfonyl)benzyl)-2,6-diazaspiro[3.3]heptan-2-yl)-1-oxoisoindolin-2-yl)piperidine-2,6-dione] | 64.5 nM | 30 nM | 35 to 90% |
| O=C1CCC(N2Cc3cc(C4CN(Cc5cccc(S(=O)(=O)N6CCC(Nc7ncc8ccc(=O)n(C9CCCC9)c8n7)CC6)c5)C4)ccc3C2=O)C(=O)N1 (stereo not drawn) [Compound 37, 3-(5-(1-(3-((4-((8-cyclopentyl-7-oxo-7,8-dihydropyrido[2,3-d]pyrimidin-2-yl)amino)-piperidin-1-yl)sulfonyl)benzyl)azetidin-3-yl)-1-oxoisoindolin-2-yl)piperidine-2,6-dione] | 190 nM | 25.7 nM | 35 to 90% |
| Cn1c(=O)n(C2CCC(=O)NC2=O)c2cccc(CCCOC3CCN(S(=O)(=O)N4CCC(Nc5ncc6ccc(=O)n(C7CCCC7)c6n5)CC4)CC3)c21 (stereo not drawn) [Compound 16, 3-(4-(3-((1-((4-((8-cyclopentyl-7-oxo-7,8-dihydropyrido[2,3-d]pyrimidin-2-yl)amino)-piperidin-1-yl)sulfonyl)piperidin-4-yl)oxy)propyl)-3-methyl-2-oxo-2,3-dihydro-1H-benzo[d]-imidazol-1-yl)piperidine-2,6-dione] | 320 nM | 495 nM | 35 to 90% |
| O=C1CCC(N2Cc3cc(N4CCN(CC5CCN(c6cccc(S(=O)(=O)N7CCC(Nc8ncc9ccc(=O)n(C%10CCCC%10)c9n8)CC7)c6)CC5)CC4)ccc3C2=O)C(=O)N1 (stereo not drawn) [Compound 36, 3-(5-(4-((1-(3-((4-((8-cyclopentyl-7-oxo-7,8-dihydropyrido[2,3-d]pyrimidin-2-yl)amino)-piperidin-1-yl)sulfonyl)phenyl)piperidin-4-yl)-methyl)piperazin-1-yl)-1-oxoisoindolin-2-yl)-piperidine-2,6-dione] | 212 nM | 25.7 nM | 35 to 90% |
| O=C1CCC(N2Cc3cc(N4CC5CCC(C4)N5Cc4cccc(S(=O)(=O)N5CCC(Nc6ncc7ccc(=O)n(C8CCCC8)c7n6)CC5)c4)ccc3C2=O)C(=O)N1 (stereo not drawn) [Compound 54, 3-(5-(8-(3-((4-((8-cyclopentyl-7-oxo-7,8-dihydro-pyrido[2,3-d]pyrimidin-2-yl)amino)piperidin-1-yl)sulfonyl)benzyl)-3,8-diazabicyclo[3.2.1]octan-3-yl)-1-oxoisoindolin-2-yl)piperidine-2,6-dione] | 214 nM | 72.5 nM | 35 to 90% |
| O=C1CCC(N2Cc3cc(N4CC(N5CCN(c6cccc(S(=O)(=O)N7CCC(Nc8ncc9ccc(=O)n(C%10CCCC%10)c9n8)CC7)c6)CC5)C4)ccc3C2=O)C(=O)N1 (stereo not drawn) [Compound 69, 3-(5-(3-(4-(3-((4-((8-cyclopentyl-7-oxo-7,8-dihydropyrido[2,3-d]pyrimidin-2-yl)amino)-piperidin-1-yl)sulfonyl)phenyl)piperazin-1-yl)azetidin-1-yl)-1-oxoisoindolin-2-yl)piperidine-2,6-dione] | 149 nM | 31.8 nM | 35 to 90% |
